Experimental data published in PMC5933782, “Molecular structures of cdc2-like kinases in complex with a new inhibitor chemotype” (PLoS ONE, 2018).

Assays:
Assay in all cases: radiometric protein kinase assay
[1] = target: CDK1/cyclin B; format: biochemical, starfish; settings: for IC50: 15 μmol/L ATP; for Residual enzyme activity CDK1/cyclin B: 10 µM concentration, ± SEM
[2] = target: T1, CDK2/cyclin A (Homo sapiens, UniProt P24941); format: biochemical; settings: for IC50: 15 μmol/L ATP, read-out: IC50 CDK2/cyclinA; for Residual enzyme activity CDK2/cyclin A: 10 µM concentration, ± SEM
T1 construct: made in house

[3] = target: T2, CDK5/p25 (Homo sapiens, UniProt Q00535); format: biochemical; settings: for IC50: 15 μmol/L ATP; for Residual enzyme activity CDK5/p25: 10 µM concentration, ± SEM
T2 construct: made in house

[4] = target: CK1δ/ε; format: biochemical, porcine; settings: for IC50: 15 μmol/L ATP, read-out: IC50 CK1; for Residual enzyme activity CK1: 10 µM concentration, ± SEM
[5] = target: DYRK1A (Homo sapiens, UniProt Q13627); format: biochemical; settings: for IC50: 15 μmol/L ATP, read-out: IC50 DYRK 1A; for Residual enzyme activity DYRK 1A: 10 µM concentration, ± SEM
[6] = target: DYRK1B (Homo sapiens, UniProt Q9Y463); format: biochemical; settings: for IC50: 15 μmol/L ATP, read-out: IC50 DYRK 1B; for Residual enzyme activity DYRK 1B: 10 µM concentration, ± SEM
[7] = target: T3, DYRK2 (Homo sapiens, UniProt Q92630); format: biochemical; settings: for IC50: 15 μmol/L ATP, read-out: IC50 DYRK 2; for Residual enzyme activity DYRK 2: 10 µM concentration, ± SEM
T3 sequence (Q92630 1-601): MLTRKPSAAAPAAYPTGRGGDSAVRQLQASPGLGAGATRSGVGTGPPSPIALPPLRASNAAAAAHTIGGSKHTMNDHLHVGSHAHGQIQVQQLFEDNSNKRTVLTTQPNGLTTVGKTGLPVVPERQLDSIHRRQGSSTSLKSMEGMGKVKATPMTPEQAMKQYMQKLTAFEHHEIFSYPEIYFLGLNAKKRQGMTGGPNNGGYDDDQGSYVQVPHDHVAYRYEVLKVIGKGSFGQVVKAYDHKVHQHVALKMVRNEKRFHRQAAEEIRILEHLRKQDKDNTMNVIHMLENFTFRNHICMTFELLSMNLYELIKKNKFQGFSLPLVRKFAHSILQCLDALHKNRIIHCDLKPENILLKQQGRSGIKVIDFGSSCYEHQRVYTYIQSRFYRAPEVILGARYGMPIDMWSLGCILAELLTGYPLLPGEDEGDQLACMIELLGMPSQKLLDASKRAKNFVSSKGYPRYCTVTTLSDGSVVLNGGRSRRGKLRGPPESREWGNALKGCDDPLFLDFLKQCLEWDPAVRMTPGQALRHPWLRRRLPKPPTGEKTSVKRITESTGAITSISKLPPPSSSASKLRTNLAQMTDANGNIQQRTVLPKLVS

[8] = target: T4, DYRK3 (Homo sapiens, UniProt O43781); format: biochemical; settings: for IC50: 15 μmol/L ATP, read-out: IC50 DYRK 3; for Residual enzyme activity DYRK 3: 10 µM concentration, ± SEM
T4 sequence (O43781 1-588): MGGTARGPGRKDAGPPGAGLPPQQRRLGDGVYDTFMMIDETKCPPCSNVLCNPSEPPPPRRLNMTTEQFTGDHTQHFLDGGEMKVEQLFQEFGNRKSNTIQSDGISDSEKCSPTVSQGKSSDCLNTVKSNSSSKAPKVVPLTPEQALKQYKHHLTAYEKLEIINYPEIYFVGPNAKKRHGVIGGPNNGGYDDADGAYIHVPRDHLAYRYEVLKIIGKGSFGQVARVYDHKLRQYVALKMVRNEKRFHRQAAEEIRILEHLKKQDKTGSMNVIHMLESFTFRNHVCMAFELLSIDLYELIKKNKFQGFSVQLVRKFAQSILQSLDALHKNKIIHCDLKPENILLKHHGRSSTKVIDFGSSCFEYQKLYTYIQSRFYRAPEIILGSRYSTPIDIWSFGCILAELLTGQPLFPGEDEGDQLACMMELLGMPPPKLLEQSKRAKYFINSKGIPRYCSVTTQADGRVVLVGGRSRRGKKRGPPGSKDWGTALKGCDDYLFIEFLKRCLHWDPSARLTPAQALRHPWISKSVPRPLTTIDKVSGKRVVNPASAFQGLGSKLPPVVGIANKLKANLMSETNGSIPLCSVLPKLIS

[9] = target: GSK-3; format: biochemical, porcine; settings: for IC50: 15 μmol/L ATP, read-out: IC50 GSK3; for Residual enzyme activity GSK3: 10 µM concentration, ± SEM
[10] = target: CDK9/cyclin T (Homo sapiens, UniProt P50750); settings: for Residual enzyme activity CDK9/cyclin T: 10 µM concentration, ± SEM
Method: (§1) Buffers. Buffer A: 10 mM MgCl2, 1 mM EGTA, 1 mM DTT, 25 mM Tris-HCl pH 7.5, 50 μg heparin/mL. Buffer C: 60 mM β-glycerophosphate, 15 mM p-nitrophenylphosphate, 25 mM MOPS (pH 7.2), 15 mM EGTA, 15 mM MgCl2, 1 mM DTT, 1 mM sodium vanadate, 1 mM phenylphosphate.
(§2) Kinase activities were assayed in buffer A or C at 30°C at a final ATP concentration of 15 μmol/L. Blank values were subtracted and activities were expressed in percent of the maximal activity, i.e. in the absence of inhibitors. Controls were performed with appropriate dilutions of DMSO.
(§3) Their kinase activity was assayed in buffer A, with 1 mg histone H1/mL, in the presence of 15 μmol/L [γ-33P] ATP (3,000 Ci/mmol; 10 mCi/mL) in a final volume of 30 μL. After 30 min incubation at 30°C, the reaction was stopped by harvesting onto P81 phosphocellulose supernatant (Whatman) using a FilterMate harvester (Packard) and washing in 1% phosphoric acid. Scintillation fluid was added and the radioactivity measured in a Packard counter.
(§4) All data points for construction of dose response curves were recorded in triplicate.

[11] = target: CLK1 (Mus musculus, UniProt P22518); settings: for Residual enzyme activity CLK 1: 10 µM concentration, ± SEM
Method: Buffer A: 10 mM MgCl2, 1 mM EGTA, 1 mM DTT, 25 mM Tris-HCl pH 7.5, 50 μg heparin/mL. Buffer C: 60 mM β-glycerophosphate, 15 mM p-nitrophenylphosphate, 25 mM MOPS (pH 7.2), 15 mM EGTA, 15 mM MgCl2, 1 mM DTT, 1 mM sodium vanadate, 1 mM phenylphosphate.
Controls were performed with appropriate dilutions of DMSO. The GS-1, CKS, CDK7/9 tide and RS peptide substrates were obtained from Proteogenix (Oberhausbergen, France).
CDK1/cyclin B (M phase starfish oocytes, native), CDK2/cyclin A and CDK5/p25 (human, recombinant) were prepared as previously described [33]. […] ATP (3,000 Ci/mmol; 10 mCi/mL) in a final volume of 30 μL. After 30 min incubation at 30°C, the reaction was stopped by harvesting onto P81 phosphocellulose supernatant (Whatman) using a FilterMate harvester (Packard) and washing in 1% phosphoric acid. Scintillation fluid was added and the radioactivity measured in a Packard counter.
as §4

[12] = target: CLK2 (Mus musculus, UniProt O35491); settings: for Residual enzyme activity CLK 2: 10 µM concentration, ± SEM
Method: as §1, §2, §3, §4

[13] = target: CLK3 (Mus musculus, UniProt O35492); settings: for Residual enzyme activity CLK 3: 10 µM concentration, ± SEM
Method: as §1, §2, §3, §4

[14] = target: CLK4 (Mus musculus, UniProt O35493); settings: for Residual enzyme activity CLK 4: 10 µM concentration, ± SEM
Sequence of CLK4 (O35493 whole entry): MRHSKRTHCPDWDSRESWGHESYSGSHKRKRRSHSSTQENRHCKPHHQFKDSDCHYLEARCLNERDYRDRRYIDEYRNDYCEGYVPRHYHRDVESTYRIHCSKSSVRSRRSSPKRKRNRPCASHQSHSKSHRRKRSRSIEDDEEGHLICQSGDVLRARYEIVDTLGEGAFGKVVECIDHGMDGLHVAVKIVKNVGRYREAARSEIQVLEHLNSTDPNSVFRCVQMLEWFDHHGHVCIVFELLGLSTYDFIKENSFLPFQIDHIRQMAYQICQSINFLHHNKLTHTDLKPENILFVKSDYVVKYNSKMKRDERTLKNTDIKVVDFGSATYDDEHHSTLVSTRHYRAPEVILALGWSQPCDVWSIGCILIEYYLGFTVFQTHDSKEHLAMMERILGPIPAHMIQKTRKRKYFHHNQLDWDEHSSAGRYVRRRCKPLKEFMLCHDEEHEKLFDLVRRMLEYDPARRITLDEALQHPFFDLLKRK
Method: as §1, §2, §3, §4

Sequence of DYRK1B (Q9Y463 whole entry): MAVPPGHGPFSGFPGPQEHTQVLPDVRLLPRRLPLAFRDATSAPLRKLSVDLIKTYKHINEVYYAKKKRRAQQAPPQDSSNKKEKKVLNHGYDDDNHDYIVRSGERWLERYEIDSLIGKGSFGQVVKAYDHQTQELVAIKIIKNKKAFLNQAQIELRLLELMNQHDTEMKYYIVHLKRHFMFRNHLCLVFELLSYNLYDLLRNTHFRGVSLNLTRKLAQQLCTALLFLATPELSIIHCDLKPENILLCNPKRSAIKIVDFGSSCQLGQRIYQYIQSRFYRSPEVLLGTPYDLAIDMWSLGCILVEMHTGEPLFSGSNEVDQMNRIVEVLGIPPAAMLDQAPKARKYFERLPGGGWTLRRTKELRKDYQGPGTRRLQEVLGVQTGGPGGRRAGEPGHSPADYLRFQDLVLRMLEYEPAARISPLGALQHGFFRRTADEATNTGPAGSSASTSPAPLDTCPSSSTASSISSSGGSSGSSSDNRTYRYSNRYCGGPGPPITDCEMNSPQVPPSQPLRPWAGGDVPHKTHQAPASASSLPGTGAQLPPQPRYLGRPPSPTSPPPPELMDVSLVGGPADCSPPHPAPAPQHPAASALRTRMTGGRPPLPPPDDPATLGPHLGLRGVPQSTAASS
Sequence of CLK1 (P22518 whole entry): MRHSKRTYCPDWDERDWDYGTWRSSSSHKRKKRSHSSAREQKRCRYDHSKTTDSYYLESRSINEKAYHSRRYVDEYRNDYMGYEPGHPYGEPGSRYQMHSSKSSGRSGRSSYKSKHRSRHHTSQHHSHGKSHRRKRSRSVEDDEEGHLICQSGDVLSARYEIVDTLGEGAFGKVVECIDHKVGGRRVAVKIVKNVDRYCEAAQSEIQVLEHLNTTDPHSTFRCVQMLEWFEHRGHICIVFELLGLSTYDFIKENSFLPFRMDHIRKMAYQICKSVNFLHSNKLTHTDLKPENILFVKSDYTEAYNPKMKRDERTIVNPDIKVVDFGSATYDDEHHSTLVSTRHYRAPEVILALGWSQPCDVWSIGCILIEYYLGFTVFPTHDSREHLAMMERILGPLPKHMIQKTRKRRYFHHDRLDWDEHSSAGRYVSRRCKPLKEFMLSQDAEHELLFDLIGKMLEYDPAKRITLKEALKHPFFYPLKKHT
Sequence of CLK3 (O35492 whole entry): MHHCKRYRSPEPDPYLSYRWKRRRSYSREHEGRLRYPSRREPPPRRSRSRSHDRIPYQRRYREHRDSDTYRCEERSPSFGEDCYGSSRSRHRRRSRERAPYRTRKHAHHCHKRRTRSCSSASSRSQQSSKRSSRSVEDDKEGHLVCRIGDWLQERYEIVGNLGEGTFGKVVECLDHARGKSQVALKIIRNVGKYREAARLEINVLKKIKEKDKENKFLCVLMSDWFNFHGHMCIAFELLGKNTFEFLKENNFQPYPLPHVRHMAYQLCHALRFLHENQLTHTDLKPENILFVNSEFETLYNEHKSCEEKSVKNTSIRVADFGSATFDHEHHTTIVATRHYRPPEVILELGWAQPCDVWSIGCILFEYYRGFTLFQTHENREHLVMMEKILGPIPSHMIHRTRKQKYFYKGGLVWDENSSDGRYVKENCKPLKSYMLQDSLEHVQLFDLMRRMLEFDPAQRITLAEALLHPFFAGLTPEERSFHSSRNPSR
Sequence of CDK9/cyclin T (P50750 whole entry): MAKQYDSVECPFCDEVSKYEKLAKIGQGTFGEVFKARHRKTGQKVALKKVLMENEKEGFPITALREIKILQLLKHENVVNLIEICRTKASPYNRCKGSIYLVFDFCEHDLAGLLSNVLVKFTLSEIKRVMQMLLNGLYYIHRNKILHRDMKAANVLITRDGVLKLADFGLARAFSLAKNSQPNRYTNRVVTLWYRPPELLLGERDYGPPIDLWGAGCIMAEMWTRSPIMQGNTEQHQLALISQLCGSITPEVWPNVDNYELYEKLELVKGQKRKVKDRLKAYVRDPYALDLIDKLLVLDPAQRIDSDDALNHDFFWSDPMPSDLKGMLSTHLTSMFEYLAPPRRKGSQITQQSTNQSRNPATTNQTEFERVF
Sequence of CDK9/cyclin T (O60563 whole entry partner): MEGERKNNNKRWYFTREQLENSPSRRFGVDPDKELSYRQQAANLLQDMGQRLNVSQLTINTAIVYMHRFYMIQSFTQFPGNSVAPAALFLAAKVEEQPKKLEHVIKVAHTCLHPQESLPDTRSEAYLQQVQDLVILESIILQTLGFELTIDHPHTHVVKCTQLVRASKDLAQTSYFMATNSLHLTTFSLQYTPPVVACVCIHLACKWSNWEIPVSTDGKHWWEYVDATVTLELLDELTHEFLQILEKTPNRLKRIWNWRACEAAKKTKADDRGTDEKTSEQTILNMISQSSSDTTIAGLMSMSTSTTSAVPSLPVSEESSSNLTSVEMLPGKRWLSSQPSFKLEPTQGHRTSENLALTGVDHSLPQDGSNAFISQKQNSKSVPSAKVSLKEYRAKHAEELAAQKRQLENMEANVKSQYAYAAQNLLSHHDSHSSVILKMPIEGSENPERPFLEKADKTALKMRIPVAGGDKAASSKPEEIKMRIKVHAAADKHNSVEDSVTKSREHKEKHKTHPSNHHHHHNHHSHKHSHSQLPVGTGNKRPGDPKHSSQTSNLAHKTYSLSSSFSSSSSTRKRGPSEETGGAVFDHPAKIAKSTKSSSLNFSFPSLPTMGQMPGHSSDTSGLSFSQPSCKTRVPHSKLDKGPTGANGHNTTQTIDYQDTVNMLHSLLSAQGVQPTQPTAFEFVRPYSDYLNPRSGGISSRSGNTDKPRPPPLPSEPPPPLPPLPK
T2 sequence (Q00535 whole entry): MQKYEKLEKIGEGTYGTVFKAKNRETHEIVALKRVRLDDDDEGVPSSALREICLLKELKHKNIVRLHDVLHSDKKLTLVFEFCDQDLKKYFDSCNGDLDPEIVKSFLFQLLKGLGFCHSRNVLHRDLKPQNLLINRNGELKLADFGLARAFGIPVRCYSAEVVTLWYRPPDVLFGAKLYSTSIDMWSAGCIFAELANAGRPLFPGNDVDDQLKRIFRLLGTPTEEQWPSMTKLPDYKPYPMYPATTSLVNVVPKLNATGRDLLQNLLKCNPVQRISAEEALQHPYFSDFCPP
T2 sequence (Q15078 99-307 partner limits assumed): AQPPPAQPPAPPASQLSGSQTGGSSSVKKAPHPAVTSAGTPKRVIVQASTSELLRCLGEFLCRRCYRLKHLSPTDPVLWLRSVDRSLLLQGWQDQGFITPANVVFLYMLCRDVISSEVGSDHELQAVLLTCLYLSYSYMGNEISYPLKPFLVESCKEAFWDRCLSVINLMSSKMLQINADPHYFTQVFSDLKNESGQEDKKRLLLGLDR
Sequence of CLK2 (O35491 whole entry): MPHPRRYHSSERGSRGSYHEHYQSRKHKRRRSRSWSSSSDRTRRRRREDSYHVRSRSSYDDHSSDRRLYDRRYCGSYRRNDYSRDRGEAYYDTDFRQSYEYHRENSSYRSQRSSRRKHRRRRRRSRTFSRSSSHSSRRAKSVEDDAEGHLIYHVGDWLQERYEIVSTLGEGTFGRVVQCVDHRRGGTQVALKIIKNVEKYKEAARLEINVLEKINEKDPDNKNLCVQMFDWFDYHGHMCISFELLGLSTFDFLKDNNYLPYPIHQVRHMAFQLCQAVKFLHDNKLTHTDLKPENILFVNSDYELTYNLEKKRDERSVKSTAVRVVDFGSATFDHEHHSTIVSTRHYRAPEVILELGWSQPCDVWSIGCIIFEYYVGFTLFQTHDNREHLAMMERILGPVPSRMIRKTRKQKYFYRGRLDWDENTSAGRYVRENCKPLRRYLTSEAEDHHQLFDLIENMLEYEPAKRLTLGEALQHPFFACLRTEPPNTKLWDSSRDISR

Compound	IC50 [1]	IC50 [2]	IC50 [3]	IC50 [4]	IC50 [5]	IC50 [6]	IC50 [7]	IC50 [8]	IC50 [9]	IC50 [10]	IC50 [11]	IC50 [12]	IC50 [13]	IC50 [14]	Residual enzyme activity CDK1/cyclin B [1]	Residual enzyme activity CDK2/cyclin A [2]	Residual enzyme activity CDK5/p25 [3]	Residual enzyme activity CK1 [4]	Residual enzyme activity DYRK 1A [5]	Residual enzyme activity DYRK 1B [6]	also measured
O=C1NCc2c(-c3ccccc3)cc3c(-c4ccccc4)c[nH]c3c21 [17a, 3,5-Diphenyl-6,7-dihydropyrrolo[3,4-g]indol-8(1H)-one]	> 10 µM	> 10 µM	> 10 µM	> 10 µM	> 10 µM	> 10 µM	> 10 µM	> 10 µM	> 10 µM	> 10 µM	8.8 µM	7.2 µM	> 10 µM	1.3 µM	–	–	–	–	–	–	–
CCc1[nH]c2c3c(ccc2c1-c1ccccc1)CNC3=O [8l, 2-Ethyl-3-phenyl-6,7-dihydropyrrolo[3,4-g]indol-8(1H)-one]	> 10 µM	> 10 µM	> 10 µM	6.1 µM	0.81 µM	–	–	–	> 10 µM	> 10 µM	0.12 µM	–	–	–	–	–	–	–	–	–	–
O=C1NCc2ccc3c(-c4ccc(Cl)cc4)c[nH]c3c21 [8d, 3-(4-Chlorophenyl)-6,7-dihydropyrrolo[3,4-g]indol-8(1H)-one]	> 10 µM	> 10 µM	> 10 µM	> 10 µM	> 10 µM	> 10 µM	9.3 µM	> 10 µM	> 10 µM	> 10 µM	0.1 µM	0.17 µM	1.8 µM	0.13 µM	–	–	–	–	–	–	–
Cc1c(-c2ccccc2)[nH]c2c3c(ccc12)CNC3=O [S18c]	–	–	–	–	–	–	–	–	–	–	–	–	–	–	77±26%	109±8%	105±11%	57±5%	58±7%	50±7%	Residual enzyme activity DYRK 2 [7]: 57±25%; Residual enzyme activity DYRK 3 [8]: 91±17%; Residual enzyme activity GSK3 [9]: 112±2%; Residual enzyme activity CDK9/cyclin T [10]: 89±6%; Residual enzyme activity CLK 1 [11]: 29±4%; Residual enzyme activity CLK 2 [12]: 30±1%; Residual enzyme activity CLK 3 [13]: 93±9%; Residual enzyme activity CLK 4 [14]: 10±0%
CC(=O)Oc1cccc(-c2c[nH]c3c4c(ccc23)CNC4=O)c1 [8h, 3-(8-Oxo-1,6,7,8-tetrahydropyrrolo[3,4-g]indol-3-yl)phenyl acetate]	> 10 µM	> 10 µM	> 10 µM	> 10 µM	1.4 µM	1.5 µM	2.4 µM	6.1 µM	> 10 µM	> 10 µM	0.17 µM	0.32 µM	3.3 µM	0.13 µM	–	–	–	–	–	–	–
O=C1NCc2c(Cl)cc3c(-c4ccccc4)c[nH]c3c21 [12c, 5-Chloro-3-phenyl-6,7-dihydropyrrolo[3,4-g]indol-8(1H)-one]	–	> 10 µM	> 10 µM	> 10 µM	0.32 µM	1.8 µM	2.3 µM	> 10 µM	> 10 µM	> 10 µM	0.38 µM	0.033 µM	2.2 µM	0.3 µM	–	–	–	–	–	–	–
O=C1NCc2ccc3c(-c4ccccc4)c(Br)[nH]c3c21 [compound 16, 2-Bromo-3-phenyl-6,7-dihydropyrrolo[3,4-g]indol-8(1H)-one]	> 10 µM	> 10 µM	> 10 µM	> 10 µM	1.9 µM	1.3 µM	1.8 µM	3.9 µM	> 10 µM	> 10 µM	0.11 µM	0.11 µM	2.8 µM	0.029 µM	–	–	–	–	–	–	–
Cc1[nH]c2c3c(ccc2c1C)C(=O)NC3=O [S19]	–	–	–	–	–	–	–	–	–	–	–	–	–	–	81±27%	108±8%	94±4%	65±5%	41±8%	39±5%	Residual enzyme activity DYRK 2 [7]: 20±5%; Residual enzyme activity DYRK 3 [8]: 57±3%; Residual enzyme activity GSK3 [9]: 51±5%; Residual enzyme activity CDK9/cyclin T [10]: 90±5%; Residual enzyme activity CLK 1 [11]: 52±10%; Residual enzyme activity CLK 2 [12]: 33±7%; Residual enzyme activity CLK 3 [13]: 91±11%; Residual enzyme activity CLK 4 [14]: 21±1%
CCc1c(-c2ccccc2)[nH]c2c3c(ccc12)CNC3=O [S18d]	–	–	–	–	–	–	–	–	–	–	–	–	–	–	109±30%	104±2%	112±11%	86±3%	74±14%	65±8%	Residual enzyme activity DYRK 2 [7]: 50±6%; Residual enzyme activity DYRK 3 [8]: 87±5%; Residual enzyme activity GSK3 [9]: 111±7%; Residual enzyme activity CDK9/cyclin T [10]: 100±10%; Residual enzyme activity CLK 1 [11]: 66±3%; Residual enzyme activity CLK 2 [12]: 66±5%; Residual enzyme activity CLK 3 [13]: 110±16%; Residual enzyme activity CLK 4 [14]: 38±3%
Cc1ccc(-c2[nH]c3c4c(ccc3c2C)CNC4=O)cc1 [S18e]	–	–	–	–	–	–	–	–	–	–	–	–	–	–	100±20%	102±9%	114±11%	84±7%	99±16%	85±7%	Residual enzyme activity DYRK 2 [7]: 75±11%; Residual enzyme activity DYRK 3 [8]: 92±9%; Residual enzyme activity GSK3 [9]: 120±31%; Residual enzyme activity CDK9/cyclin T [10]: 101±3%; Residual enzyme activity CLK 1 [11]: 105±12%; Residual enzyme activity CLK 2 [12]: 77±6%; Residual enzyme activity CLK 3 [13]: 105±10%; Residual enzyme activity CLK 4 [14]: 64±9%
Cc1[nH]c2c3c(ccc2c1C)CNC3=O [S18b]	–	–	–	–	–	–	–	–	–	–	–	–	–	–	93±26%	103±2%	111±18%	75±3%	82±5%	77±11%	Residual enzyme activity DYRK 2 [7]: 61±4%; Residual enzyme activity DYRK 3 [8]: 89±8%; Residual enzyme activity GSK3 [9]: 135±18%; Residual enzyme activity CDK9/cyclin T [10]: 104±7%; Residual enzyme activity CLK 1 [11]: 92±8%; Residual enzyme activity CLK 2 [12]: 63±17%; Residual enzyme activity CLK 3 [13]: 104±14%; Residual enzyme activity CLK 4 [14]: 48±6%
O=C1NCc2c(Br)cc3c(-c4ccccc4)c[nH]c3c21 [12a, 5-Bromo-3-phenyl-6,7-dihydropyrrolo[3,4-g]indol-8(1H)-one]	2.8 µM	> 10 µM	5.3 µM	1.7 µM	0.2 µM	–	–	–	> 10 µM	> 10 µM	0.043 µM	–	–	–	–	–	–	–	–	–	–
Cc1[nH]c2c3c(ccc2c1-c1ccccc1)CNC3=O [8k, 2-Methyl-3-phenyl-6,7-dihydropyrrolo[3,4-g]indol-8(1H)-one]	> 10 µM	> 10 µM	> 10 µM	> 10 µM	1.5 µM	–	–	–	> 10 µM	> 10 µM	0.093 µM	–	–	–	–	–	–	–	–	–	–
